Laboratory results from US9492471B2, “Methods of treating a disease or disorder associated with Bruton'S Tyrosine Kinase” (Celgene Avilomics Research, Inc., priority 2013, dated 2016).
Like-named read-outs stand apart in the source and are kept apart here.

Tests used:
Experiment in all cases: HotSpot kinase profiling
Assay type in all cases: biochemical
PKCa = molecular target: T1, PKCa (Homo sapiens, UniProt P17252)
T1 construct: purchased Reaction Biology Corp
Procedure, shortened: (§1)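 Percent inhibition, averaged when run more than once and referenced to a DMSO negative control, came from a radioactive filter-binding readout on P81 paper. Reactions of kinase with freshly made substrate and cofactors ran for 2 h at room temperature.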

MEKK3 = molecular target: T2, MEKK3 (Homo sapiens, UniProt Q99759)
T2 construct: purchased Reaction Biology Corp
T2 sequence (Q99759 1-626): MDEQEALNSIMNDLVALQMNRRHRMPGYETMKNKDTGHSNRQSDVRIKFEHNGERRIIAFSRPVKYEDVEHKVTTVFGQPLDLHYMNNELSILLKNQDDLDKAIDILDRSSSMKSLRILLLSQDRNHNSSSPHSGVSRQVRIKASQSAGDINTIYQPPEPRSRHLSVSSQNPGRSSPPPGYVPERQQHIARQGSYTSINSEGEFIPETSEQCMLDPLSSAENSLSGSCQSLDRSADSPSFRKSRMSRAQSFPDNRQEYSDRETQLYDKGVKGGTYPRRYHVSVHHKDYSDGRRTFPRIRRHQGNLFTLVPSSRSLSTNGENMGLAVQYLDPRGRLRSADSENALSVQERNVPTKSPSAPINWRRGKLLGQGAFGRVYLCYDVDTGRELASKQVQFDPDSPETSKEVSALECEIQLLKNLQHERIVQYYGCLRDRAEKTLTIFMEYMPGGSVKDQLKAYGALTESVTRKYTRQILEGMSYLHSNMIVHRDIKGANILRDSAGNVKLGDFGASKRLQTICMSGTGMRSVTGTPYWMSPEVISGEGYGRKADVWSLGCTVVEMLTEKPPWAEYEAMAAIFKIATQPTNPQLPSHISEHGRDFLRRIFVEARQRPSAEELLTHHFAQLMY
Procedure, shortened: as §1

RIPK5 = molecular target: T3, RIPK5 (Homo sapiens, UniProt Q6XUX3)
T3 construct: purchased Reaction Biology Corp
T3 sequence (Q6XUX3 1-929): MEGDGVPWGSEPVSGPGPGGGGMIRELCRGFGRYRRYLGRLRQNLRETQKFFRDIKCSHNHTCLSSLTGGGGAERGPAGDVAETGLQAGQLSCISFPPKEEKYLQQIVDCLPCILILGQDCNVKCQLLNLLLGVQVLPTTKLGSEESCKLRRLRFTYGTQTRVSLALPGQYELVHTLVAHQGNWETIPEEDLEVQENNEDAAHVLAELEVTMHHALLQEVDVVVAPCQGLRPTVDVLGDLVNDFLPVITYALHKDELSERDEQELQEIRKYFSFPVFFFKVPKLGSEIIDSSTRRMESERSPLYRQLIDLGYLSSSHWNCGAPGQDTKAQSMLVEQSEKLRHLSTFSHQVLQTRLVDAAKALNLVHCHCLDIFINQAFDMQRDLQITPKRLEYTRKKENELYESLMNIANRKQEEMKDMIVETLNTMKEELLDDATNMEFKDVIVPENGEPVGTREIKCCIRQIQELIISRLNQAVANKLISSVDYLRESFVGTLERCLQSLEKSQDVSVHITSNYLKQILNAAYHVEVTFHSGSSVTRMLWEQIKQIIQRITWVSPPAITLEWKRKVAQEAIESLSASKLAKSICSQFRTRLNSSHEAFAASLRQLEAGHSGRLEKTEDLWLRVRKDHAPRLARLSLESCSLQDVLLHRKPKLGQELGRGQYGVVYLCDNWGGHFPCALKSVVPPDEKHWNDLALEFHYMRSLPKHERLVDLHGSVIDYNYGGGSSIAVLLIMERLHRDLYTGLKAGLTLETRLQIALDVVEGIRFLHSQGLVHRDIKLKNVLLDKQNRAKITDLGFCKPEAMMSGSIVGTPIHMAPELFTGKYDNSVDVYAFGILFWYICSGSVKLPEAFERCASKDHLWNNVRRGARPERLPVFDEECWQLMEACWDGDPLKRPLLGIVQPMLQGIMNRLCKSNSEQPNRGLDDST
Procedure, shortened: as §1

GRK7 = molecular target: T4, GRK7 (Homo sapiens, UniProt Q8WTQ7)
T4 construct: purchased Reaction Biology Corp
T4 sequence (Q8WTQ7 1-553): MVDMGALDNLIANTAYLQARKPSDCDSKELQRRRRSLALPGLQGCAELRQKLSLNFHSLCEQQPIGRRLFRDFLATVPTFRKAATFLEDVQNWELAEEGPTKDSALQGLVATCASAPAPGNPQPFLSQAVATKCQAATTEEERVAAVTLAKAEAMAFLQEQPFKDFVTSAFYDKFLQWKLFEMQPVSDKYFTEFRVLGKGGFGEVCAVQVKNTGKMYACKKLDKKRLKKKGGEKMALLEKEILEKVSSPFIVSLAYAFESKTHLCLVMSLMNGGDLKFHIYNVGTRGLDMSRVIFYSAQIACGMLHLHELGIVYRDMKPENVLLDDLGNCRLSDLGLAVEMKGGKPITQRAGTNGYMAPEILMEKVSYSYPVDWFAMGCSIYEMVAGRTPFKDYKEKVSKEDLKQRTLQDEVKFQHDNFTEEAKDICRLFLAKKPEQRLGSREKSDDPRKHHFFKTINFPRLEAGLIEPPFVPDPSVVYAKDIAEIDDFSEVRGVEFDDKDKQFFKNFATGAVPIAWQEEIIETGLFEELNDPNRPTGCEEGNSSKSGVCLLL
Procedure, shortened: as §1

FLT4/VEGFR3 = molecular target: T5, FLT4/VEGFR3 (Homo sapiens, UniProt P35916)
T5 construct: purchased Reaction Biology Corp
Procedure, shortened: as §1

[1] = read-out: % Enzyme Activity (relative to DMSO controls) Run 1
[2] = read-out: % Enzyme Activity (relative to DMSO controls) Run 2

T5 sequence (P35916 25-1363): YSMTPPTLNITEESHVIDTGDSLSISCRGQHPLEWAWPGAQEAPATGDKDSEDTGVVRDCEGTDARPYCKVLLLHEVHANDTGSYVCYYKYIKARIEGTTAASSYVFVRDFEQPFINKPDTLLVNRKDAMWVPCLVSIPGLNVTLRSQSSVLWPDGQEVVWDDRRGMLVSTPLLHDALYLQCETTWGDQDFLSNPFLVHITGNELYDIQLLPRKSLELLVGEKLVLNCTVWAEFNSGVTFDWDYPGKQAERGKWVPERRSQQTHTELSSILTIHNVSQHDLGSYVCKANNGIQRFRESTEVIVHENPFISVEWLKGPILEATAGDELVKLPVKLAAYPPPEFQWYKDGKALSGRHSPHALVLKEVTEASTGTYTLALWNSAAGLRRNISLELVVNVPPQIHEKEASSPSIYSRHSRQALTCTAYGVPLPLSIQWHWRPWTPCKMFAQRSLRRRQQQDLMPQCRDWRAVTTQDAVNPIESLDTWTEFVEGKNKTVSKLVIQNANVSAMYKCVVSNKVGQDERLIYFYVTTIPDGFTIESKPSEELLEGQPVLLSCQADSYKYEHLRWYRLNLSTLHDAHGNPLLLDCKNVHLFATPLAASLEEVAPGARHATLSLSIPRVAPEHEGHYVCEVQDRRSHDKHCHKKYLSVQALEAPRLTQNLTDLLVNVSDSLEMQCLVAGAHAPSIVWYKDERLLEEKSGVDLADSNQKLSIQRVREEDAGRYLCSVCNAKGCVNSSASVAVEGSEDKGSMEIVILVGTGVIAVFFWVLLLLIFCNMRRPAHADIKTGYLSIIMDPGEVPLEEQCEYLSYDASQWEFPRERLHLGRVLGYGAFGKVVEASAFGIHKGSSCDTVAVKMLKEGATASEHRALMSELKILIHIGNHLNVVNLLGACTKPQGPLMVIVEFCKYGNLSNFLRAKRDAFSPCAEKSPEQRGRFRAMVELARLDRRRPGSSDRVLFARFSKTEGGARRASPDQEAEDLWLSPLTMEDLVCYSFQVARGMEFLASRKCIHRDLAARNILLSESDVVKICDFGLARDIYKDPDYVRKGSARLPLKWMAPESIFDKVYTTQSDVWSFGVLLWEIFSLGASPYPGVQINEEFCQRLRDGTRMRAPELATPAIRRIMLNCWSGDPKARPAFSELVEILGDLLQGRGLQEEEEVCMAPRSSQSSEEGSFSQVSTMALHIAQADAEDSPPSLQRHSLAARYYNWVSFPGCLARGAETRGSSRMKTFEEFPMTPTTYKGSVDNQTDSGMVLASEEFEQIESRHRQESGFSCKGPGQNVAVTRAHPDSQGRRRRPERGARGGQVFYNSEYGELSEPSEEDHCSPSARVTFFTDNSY

C=CC(=O)Nc1cccc(Nc2nc(Nc3ccc(OCCOC)c(F)c3)ncc2F)c1 [Compound 2]
inhibition at 3 µM (PKCa): 11.4% | remaining activity at 3 µM (PKCa; [1]): 88.4% | remaining activity at 3 µM (PKCa; [2]): 88.8% | inhibition at 3 µM (MEKK3): -4.03% | remaining activity at 3 µM (MEKK3; [1]): 102% | remaining activity at 3 µM (MEKK3; [2]): 106% | inhibition at 3 µM (RIPK5): 2.32% | remaining activity at 3 µM (RIPK5; [1]): 96.1% | remaining activity at 3 µM (RIPK5; [2]): 99.2% | inhibition at 3 µM (GRK7): 9.96% | remaining activity at 3 µM (GRK7; [1]): 89.1% | remaining activity at 3 µM (GRK7; [2]): 90.9% | inhibition at 3 µM (FLT4/VEGFR3): 56% | remaining activity at 3 µM (FLT4/VEGFR3; [1]): 43.8% | remaining activity at 3 µM (FLT4/VEGFR3; [2]): 44.2%
